Results as given in patent US20100190856A1, “Novel Polyhydroxylated Compounds as Fatty Acid Synthase (FASN) Inhibitors” (UNIVERSIDAD COMPLUTENSE DE MADRID, priority 2007, published 2010).
Entries after “also recorded” stand apart in the source; their conditions may differ.

Columns and labels:
[1] = tested on: AKT; test: Immunoblot analysis of AKT and phospho-AKT in SK-Br3 cells; assay type: cell-based, human; conditions: for time after treatment at which a marked decrease of p-AKT was observed / expression levels of p-AKT proteins: SK-Br3, 30 μM; for expression levels of p-AKT proteins: 6 hours after treatment; for active form of Akt: within 2 h after treatment
Procedure: (§1) Following the treatment of SK-Br3 cells with the studied compound at the desired concentrations and time intervals, cells were harvested by treatment with trypsin-EDTA solution, washed twice with PBS and stored at −80° C. The cells were lysed in lysis buffer (1 mM EDTA, 150 mM NaCl, 100 μg/mL PMSF and 50 mM Tris-HCl, pH 7.5) and kept at 4° C. while they were routinely mixed every 2 min on the vortex during 30 min. A sample was taken for measurement of protein content by a BioRad assay (Bio-Rad Laboratories). Equal amounts of protein were heated in sodium dodecyl sulphate (SDS) sample buffer (Laemmli) for 5 min at 95° C., separated on a 3-8% SDS-polyacrylamide gel (FASN, p185^HER2/neu, phospho-p185^HER2/neu) or 4-12% SDS-polyacrylamide gel (AKT, phospho-AKT, ERK1/2, phospho-ERK1/2 and PARP) and transferred onto nitrocellulose membranes. The membranes were incubated for 1 h at room temperature in blocking buffer (2.5% powdered-skim milk in TBS-T [10 mM Tris-HCl pH 8.0, 150 mM NaCl and 0.05% Tween-20]) to prevent non-specific antibody binding. The primary antibody used was a monoclonal antibody. Antibody dilution was prepared in blocking solution and blots were incubated with monoclonal antibody overnight at 4° C. […] Blots were re-probed with an antibody for β-actin to control for protein loading and transfer.

[2] = biological target: T1, rat CPT-1 (Rattus norvegicus, UniProt Q63704); test: Carnitine palmitoyltransferase 1 (CPT-1) assay, yeast mitochondria; assay type: biochemical; set-up: % CPT-1 activity: concentration or dose not given beside the values; conditions: for % CPT-1 activity: % of DMSO control, mitochondria of P. pastoris expressing rat CPT-1
T1 construct: made in house; host or cells: Pichia pastoris GS115 (isolated intact mitochondria)
T1 sequence (Q63704 1-772): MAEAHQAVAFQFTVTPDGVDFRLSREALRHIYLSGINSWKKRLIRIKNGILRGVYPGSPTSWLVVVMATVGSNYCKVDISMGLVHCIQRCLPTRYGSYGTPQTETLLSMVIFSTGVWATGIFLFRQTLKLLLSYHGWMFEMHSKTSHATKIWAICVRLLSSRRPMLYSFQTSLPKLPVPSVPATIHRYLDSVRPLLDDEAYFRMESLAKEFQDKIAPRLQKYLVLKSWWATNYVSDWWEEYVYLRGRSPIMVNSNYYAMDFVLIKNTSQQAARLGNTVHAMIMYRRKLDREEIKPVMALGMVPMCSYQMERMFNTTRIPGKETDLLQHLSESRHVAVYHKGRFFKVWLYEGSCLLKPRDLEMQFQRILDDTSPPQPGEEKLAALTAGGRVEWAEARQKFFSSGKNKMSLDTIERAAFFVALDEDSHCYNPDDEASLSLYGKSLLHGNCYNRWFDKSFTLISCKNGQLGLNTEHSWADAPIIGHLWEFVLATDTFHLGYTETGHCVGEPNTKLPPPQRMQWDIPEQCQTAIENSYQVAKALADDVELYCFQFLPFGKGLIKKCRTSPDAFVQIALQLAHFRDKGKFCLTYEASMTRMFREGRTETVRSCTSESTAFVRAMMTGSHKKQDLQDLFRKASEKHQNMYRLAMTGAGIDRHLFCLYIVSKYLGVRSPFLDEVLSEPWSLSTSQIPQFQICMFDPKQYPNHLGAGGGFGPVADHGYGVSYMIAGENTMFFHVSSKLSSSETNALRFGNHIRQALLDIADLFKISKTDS
Text: The expression plasmid pRCPT-Iβ/pHW010 (provided by Gebre Woldegiorgis, Beaverton, Oreg. Published in Woldegiorgis G. et al. Biochem. Biophys. Res. Commun. 2004, 325, 660-4.) was linearized in the GAP gene promoter by digestion with AvrII and integrated into the GAPp locus of P. pastoris GS115 by electroporation. Histidine prototrophic transformants were selected on YND plates and grown on YND medium. Mitochondria were isolated by disrupting the yeast cells with glass beads as previously described.
CPT activity was assayed by the forward exchange method using L-[^3H] carnitine as previously described (Nicot, C. et al., Biochem. Biophys. Res. Comm. 2004, 325, 2745-7). In a total volume of 0.5 mL, the standard enzyme assay mixture contained 0.2 mM L-[^3H]carnitine (˜5000 dpm/nmol), 80 μM palmitoyl-CoA, 20 mM HEPES (pH 7.0), 1% fatty acid-free albumin, and 40-75 mM KCl, with or without malonyl-CoA as indicated. Reactions were initiated by addition of isolated intact yeast mitochondria. The reaction was linear up to 4 min, and all incubations were done at 30° C. for 3 min. Reactions were stopped by addition of 6% perchloric acid and were then centrifuged at 2000 rpm for 7 min. The resulting pellet was suspended in water, and the product [^3H]palmitoylcarnitine was extracted with butanol at low pH. After centrifugation at 2000 rpm for 2 min, an aliquot of the butanol phase was transferred to a vial for radioactive counting.

[3] = tested on: ERK1/2; test: Immunoblot analysis of ERK1/2 and phospho-ERK1/2 in SK-Br3 cells; assay type: cell-based, human; conditions: for activation of p-ERK1/2 proteins: SK-Br3, 30 μM, 6 h after treatment; for active form of ERK1/2: within 2 h after treatment
Procedure: as §1

[4] = tested on: MDA-MB-231 breast cancer cells; test: MTT cytotoxicity assay, MDA-MB-231 breast cancer cells; assay type: cell-based, human; conditions: Homo sapiens, MDA-MB-231 cells, 48 h, read-out: IC50, growth inhibition, MDA-MB-231

O=C(Oc1cc(OC(=O)c2cc(O)c(O)c(O)c2)c2ccccc2c1)c1cc(O)c(O)c(O)c1 [f, 1,3-bis[(3,4,5-trihydroxybenzoyl)oxy]naphthalene]
time after treatment at which a marked decrease of p-AKT was observed [1]: 24 h | expression levels of p-AKT proteins [1]: low decrease | active form of Akt [1]: marked decrease | stimulation of CPT-1 activity (in words) [2]: did not stimulate CPT-1 activity; also recorded: without parallel stimulation of CPT-1 activity | % CPT-1 activity [2]: 89 ± 4% | activation of p-ERK1/2 proteins [3]: marked decrease | active form of ERK1/2 [3]: marked decrease | IC50 [4]: 78.7 ± 4 µM

O=C(Oc1ccc(OC(=O)c2cc(O)c(O)c(O)c2)c2ccccc12)c1cc(O)c(O)c(O)c1 [i, 1,4-bis[(3,4,5-trihydroxybenzoyl)oxy]naphthalene]
time after treatment at which a marked decrease of p-AKT was observed [1]: 12 h | expression levels of p-AKT proteins [1]: low decrease | active form of Akt [1]: marked decrease | stimulation of CPT-1 activity (in words) [2]: did not stimulate CPT-1 activity; also recorded: without parallel stimulation of CPT-1 activity | % CPT-1 activity [2]: 90 ± 5% | activation of p-ERK1/2 proteins [3]: marked decrease | active form of ERK1/2 [3]: marked decrease | IC50 [4]: 62.5 ± 10.6 µM
